For assay [1], the system named is 5×FAD Tg mice. Nature of the assay: Barnes maze and T maze in 5×FAD Tg mice. It counts as in vivo, mouse. The text has this:
FIG. 6 (A-N). Intranasal delivery of wtTIDM, but not mTIDM, peptide inhibits neuronal apoptosis in vivo in the hippocampus and improves memory and learning in Tg mice. […] After 30 d of treatment, mice were sacrificed and hippocampal sections were double-labeled for TUNEL & NeuN (A). […] Hippocampal extracts of all groups of mice (n=4) were immunoblotted for cleaved caspase 3 (D). Actin was run as loading control. E) Bands were scanned and values (cleaved caspase 3/Actin) are presented as relative to non-Tg control. […] Protein levels of PSD-95. NR2A and GluR1 were monitored in hippocampal extracts by Western blot (F). Bands were scanned and values (G, PSD-95/Actin; H, NR2A/Actin; I, GluR1/Actin) are presented as relative to non-Tg control. […] Mice were tested for Barnes maze (J, latency; K, number of errors made) and T maze (L, number of positive turns; M, number of negative turns). Short-term memory was also monitored by novel object recognition test, which is represented by discrimination index (N). Eight mice (n=8) were used in each group and results were analyzed by one-way ANOVA.
Maze experiments were performed as described by us (52, 57). Briefly, for Barnes maze, mice were trained for 2 consecutive days followed by examination on day 3. […]

Assay [2] has as its system p65 and p50. Kind of assay: Nuclear translocation of p65 and p50 in BV-2 microglial cells (Western blot). It counts as cell-based. The following applies: 10 μM peptide 1 h, 1 μM fibrillar Aβ1-42. The method, then: FIG. 15 (A-F). Effect of wtTIDM peptide on fibrillar Aβ- and LPS-induced nuclear translocation of p65 and p50 in microglial cells. BV-2 microglial cells preincubated with 10 μM wtTIDM peptide for 1 h were stimulated with either 1 μM fibrillar Aβ1-42 (A-C) or 1 μg/ml LPS (D-F) under serum-free condition. At different minute intervals, levels of p65 and p50 (A, fibrillar Aβ; D, LPS) were monitored in nuclear extracts by Western blot. Histone H3 was run as a loading control. Bands were scanned and values of p65/H3 (B & E) and p50/H3 (C & F) are presented as relative to control (n=2 replicates/condition in 3 independent experiments). ap<0.05, bp<0.001 vs control; cp<0.01 vs 30 min stimulation; dp<0.05 vs 15 min stimulation; NS, not significant by two-sample t-tests.
In general terms: In western blotting, separated proteins are transferred to a membrane and probed.

The subject of assay [3] is 5×FAD Tg mice. Kind of assay: Amyloid plaque / Aβ load in 5×FAD Tg mice. It counts as in vivo, mouse. The following applies: 0.1 mg/kg body wt/2 d intranasal, 30 d. The method, then: FIG. 5 (A-Q). […] Actin was run as loading control. […] M) Hippocampal sections were immunolabeled with 82E1 mAb. […] Arrowhead indicates 4 kDa Aβ band.
FIG. 20 (A-B). Intranasal delivery of wtTIDM, but not mTIDM, peptide lowers the burden of amyloid plaques in the hippocampus of Tg mice. […] Actin was run as loading control. […] Results were analyzed by two-sample t-tests.
FIG. 21 (A-F). Intranasal delivery of wtTIDM, but not mTIDM, peptide reduces the levels of Aβ1-40 and Aβ1-42 in serum and hippocampus of Tg mice. […] After 30 d of treatment. ELISA quantification of Aβ1-40 (A, C & E) and Aβ1-42 (B, D & F) was performed in serum (A & B) and TBS (C & D) and (TBS+Triton X-100) (E & F) extracted hippocampal tissues. Six mice (n=6 per group) were used in two independent experiments. ap<0.01 & cp<0.001 versus non-Tg; bp<0.01 & dp<0.001 versus Tg by two-sample t-tests.
B6SJL-Tg (APPSwFlLon,PSEN1*M146L*L286V) 6799Vas/J transgenic (5×FAD or termed here as Tg) mice were purchased from Jackson Laboratories (Bar Harbor, ME). […] Briefly, TIDM peptides were dissolved in 5 μl normal saline, mice were hold in supine position and saline was delivered into one nostril using a pipetman.
Hippocampal tissues were homogenized in TBS, pelleted for 30 min×150,000 g. […]

Assay [4] relates to NF-κB. Kind of assay: NF-κB activation by EMSA in primary Tlr2−/− microglia. The class given is cell-based, mouse. The following applies: peptide 1 h, 1 μM fibrillar Aβ1-42 for 1 h. The method, then: FIG. 16 (A-F). […] Primary microglia isolated from WT (A) and TLR2 (−/−) (B) mice were treated with different concentrations of wtTIDM peptide for 1 h followed by stimulation with 1 μM fibrillar Aβ1-42 under serum-free condition. After 1 h of stimulation, the activation of NF-κB was monitored by EMSA. WT (C & D) and TLR2 (−/−) (E & F) microglia were treated with different concentrations of wtTIDM and mTIDM peptides for 1 h followed by stimulation with 1 μM fibrillar Aβ1-42 under serum-free condition. After 18 h of stimulation, levels of TNFα (C & E) and IL-1β (D & F) were monitored in supernatants by ELISA (n=2 replicates/condition in 3 independent experiments). ap<0.001 vs control; bp<0.001 vs stimuli by two-sample t-tests.
Nuclear extracts were isolated and EMSA was carried out as described before (22, 23).
For orientation: In EMSA bound probe runs differently from free probe, usually more slowly.

Assay [5] concerns the target T1, interaction between newly-formed cTLR2 and MyD88 (Mus musculus, UniProt Q9QUN7).
T1 construct: The cTLR2 (640-784 amino acids) tagged with c-myc was cloned in lenti vector; expressed in transfected cells; host or cells: BV-2 microglial cells transduced with pLenti-cMyc-cTlr2 lentivirions
Kind of assay: MyD88 immunoprecipitation / c-Myc western blot in BV-2 cells transduced with pLenti-cMyc-cTlr2. The class given is cell-based. The following applies: transduced BV-2 cells, fibrillar Aβ1-42 for 1 h.

Structures are written as SMILES.

T1 sequence (Q9QUN7 640-784): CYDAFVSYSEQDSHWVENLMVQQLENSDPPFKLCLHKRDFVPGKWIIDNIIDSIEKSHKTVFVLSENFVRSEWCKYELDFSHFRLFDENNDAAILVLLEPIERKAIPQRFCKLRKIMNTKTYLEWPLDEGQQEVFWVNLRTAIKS

For `CC[C@H](C)[C@H](NC(=O)[C@H](CCCCN)NC(=O)[C@@H](NC(=O)[C@H](CCC(N)=O)NC(=O)[C@H](CCCNC(=N)N)NC(=O)[C@@H](N)CC(=O)O)[C@@H](C)CC)C(=O)N[C@@H](Cc1c[nH]c2ccccc12)C(=O)N[C@@H](Cc1ccccc1)C(=O)N[C@@H](CCC(N)=O)C(=O)N[C@@H](CC(N)=O)C(=O)N[C@@H](CCCNC(=N)N)C(=O)N[C@@H](CCCNC(=N)N)C(=O)N[C@@H](CCSC)C(=O)N[C@@H](CCCCN)C(=O)N[C@@H](Cc1c[nH]c2ccccc12)C(=O)N[C@@H](CCCCN)C(=O)N[C@@H](CCCCN)C(=O)N1CCC[C@H]1C(=O)NCC(=O)N[C@@H](C)C(=O)N[C@@H](Cc1c[nH]cn1)C(=O)N[C@@H](CCC(N)=O)C(=O)N[C@@H](CCCCN)C(=O)O` [wtTIDM, drqikiwfqnrrmkwkkPGAHQK], the “memory functions in Barnes maze (latency, number of errors)” value in assay [1] (0.1 mg/kg body wt/2 d intranasal, 30 d) is on record as “significantly improved”. In assay [1] (summary statement), the “spatial learning and memory in Tg mice” value is on record as “improved”. Also, in assay [2], the “inhibition of nuclear translocation of p65 and p50, fibrillar Aβ1-42” value is given as “inhibited”. The “Aβ (plaques, Western blot, ELISA of Aβ1-40 and Aβ1-42 in serum and hippocampus)” value in assay [3] is recorded as “significant decrease”. Moreover, the “inhibition of fibrillar Aβ1-42-induced activation of NF-κB in Tlr2−/− microglia” value in assay [4] is listed as “remained unable to inhibit”. Moreover, the “inhibition of interaction between newly-formed cTLR2 and MyD88” value in assay [5] was “inhibited”.
